Results reported in the supplement of paper PMC9663587.

Key:
Assay in all cases: GRmax, 72 h; higher = less effect;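 also: breast cell lines in 384-well plates, nine doses across a 10^4 range, Dye Drop imaging of viable cells vs DMSO and time-zero plates, GR 0 means no net growth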
184A1 = tested on: 184A1
BT474 = tested on: BT474
HCC1954 = tested on: HCC1954
HTERT_HME1 = tested on: HTERT_HME1
MCF12A = tested on: MCF12A
MCF7 = tested on: MCF7
MDAMB361 = tested on: MDAMB361
MDAMB468 = tested on: MDAMB468
PDX1328 = tested on: PDX1328
SUM229PE = tested on: SUM229PE
SUM44PE = tested on: SUM44PE
T47D = tested on: T47D
UACC812 = tested on: UACC812

SMILES	GRmax, 72 h (184A1) [GR]	GRmax, 72 h (BT474) [GR]	GRmax, 72 h (HCC1954) [GR]	GRmax, 72 h (HTERT_HME1) [GR]	GRmax, 72 h (MCF12A) [GR]	GRmax, 72 h (MCF7) [GR]	GRmax, 72 h (MDAMB361) [GR]	GRmax, 72 h (MDAMB468) [GR]	GRmax, 72 h (PDX1328) [GR]	GRmax, 72 h (SUM229PE) [GR]	GRmax, 72 h (SUM44PE) [GR]	GRmax, 72 h (T47D) [GR]	GRmax, 72 h (UACC812) [GR]
CC[C@@H]1C(=O)N(C)c2cnc(Nc3ccc(C(=O)N[C@H]4CC[C@H](N5CCN(CC6CC6)CC5)CC4)cc3OC)nc2N1C(C)C [Volasertib/BI6727] (max 1 µM)	-0.13	-0.284	-0.154	-0.0817	-0.0126	-0.0338	-0.497	-0.449	-0.529	-0.356	-0.288	-0.159	-0.496
O=C(CCCCCCC(=O)Nc1ccccc1)NO [Vorinostat] (max 10 µM)	-0.0468	-0.924	-0.14	0.0551	0.318	-0.175	-0.939	-0.119	-0.285	-0.0664	-0.427	-0.157	-0.487
C=CC(=O)Nc1ccc(C(=O)Nc2[nH]nc3c2CN(C(=O)N[C@H](CN(C)C)c2ccccc2)C3(C)C)cc1 [YKL-5-124] (max 10 µM)	-0.0615	-0.566	-0.14	-0.144	0.0267	-0.268	-0.835	-0.493	0.177	-0.0428	-0.448	-0.146	-0.403
CN1CCN(C(=O)c2ccc3cc(CCNc4ncnc5ccc(C#N)cc45)ccc3c2)CC1 [senexin b] (max 10 µM)	0.809	0.107	0.455	0.748	0.776	0.474	0.271	0.132	1.02	0.696	0.309	0.213	0.248
